For one data set, the system named is mycobacteria. Conditions: cited from earlier work.
Data set [1] concerns the target E. coli biotin synthase (EcBioB) (Escherichia coli, UniProt P12996). The data set can be described thus: biochemical. It is filed as biochemical. The settings on record: for IC50: 5 μM EcBioB dimer, 10 μM DTB, 100 μM SAM, single-turnover.
In data set [2] the test system is non-tuberculosis mycobacteria, gram-positive and gram-negative pathogens. Nature of the data set: organism not typed. In kind it is cell-based.
Data set [3] deals with gram-positive and gram-negative bacteria or fungi. Conditions: cited from earlier work.
Data set [4] deals with biotin pathway intermediates (vitamers). The settings on record: acidomycin added to culture media; cited from earlier work.
In data set [5] the target is MtBPL (M. tuberculosis biotin protein ligase) (Mycobacterium tuberculosis, UniProt I6YFP0). In kind it is binding.
Chain of MtBPL (M. tuberculosis biotin protein ligase) (I6YFP0 whole entry, looked up): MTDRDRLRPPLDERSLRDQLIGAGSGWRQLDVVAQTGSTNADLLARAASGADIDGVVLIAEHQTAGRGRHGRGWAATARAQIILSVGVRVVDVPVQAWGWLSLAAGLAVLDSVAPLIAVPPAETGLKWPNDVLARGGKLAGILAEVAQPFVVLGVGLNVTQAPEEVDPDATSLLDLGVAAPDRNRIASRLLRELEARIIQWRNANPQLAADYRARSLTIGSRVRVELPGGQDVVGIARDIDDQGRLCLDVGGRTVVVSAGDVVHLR
Data set [6] deals with M. tuberculosis infection. The settings on record: cited from earlier work.
Data set [7] deals with M. tuberculosis H37Rv. Nature of the data set: MIC against M. tuberculosis H37Rv. In kind it is cell-based, Mycobacterium tuberculosis.
The next data set deals with E. coli K-12. Nature of the data set: Intracellular accumulation of antibiotics. In kind it is cell-based.
In data set [8] the test system is biotinylated proteome of M. tuberculosis. It is filed as cell-based, M. tuberculosis H37Ra.
For data set [9] the following is noted: for t1/2 (i.v.): 5 mg/kg i.v., terminal elimination half-life; for F (oral bioavailability) / AUC0–∞ (i.v.) / CL (i.v.) / Vd (i.v.) / AUC0–∞ (p.o.): mouse, in vivo; for AUC0–∞ (i.v.) / CL (i.v.) / Vd (i.v.): iv, 5 mg/kg; for AUC0–∞ (p.o.): po, 25 mg/kg.
Another data set deals with HepG2. The settings on record: human, 72 h.
Another data set concerns P. aeruginosa (PA14). Nature of the data set: MIC, broth microdilution, P. aeruginosa. The settings on record: Pseudomonas aeruginosa.
The subject of another data set is M. tuberculosis Erdman. Nature of the data set: microbe, parasite or virus in culture. It is filed as cell-based. Conditions: Mycobacterium tuberculosis.
For a further data set, the system named is E. faecalis (V583). Nature of the data set: MIC, broth microdilution, E. faecalis. Conditions: Enterococcus faecalis. A general note: In broth dilution the organism is exposed to a series of concentrations in liquid medium.
For the next data set, the system named is M. tuberculosis (7) MDR. Nature of the data set: microbe, parasite or virus in culture. In kind it is cell-based. Conditions: Mycobacterium tuberculosis.
A further data set relates to M. tuberculosis (2) XDR. Nature of the data set: microbe, parasite or virus in culture. It is filed as cell-based. Conditions: Mycobacterium tuberculosis.
A further data set deals with M. abscessus (4). Nature of the data set: MIC against M. abscessus. It is filed as cell-based. Conditions: Mycobacteroides abscessus.
The subject of data set [10] is M. tuberculosis H37Rv. In kind it is cell-based.
Data set [11] has as its system M. tuberculosis (8) drug-sensitive clinical isolates. Nature of the data set: microbe, parasite or virus in culture. It is filed as cell-based. The settings on record: Mycobacterium tuberculosis.
The test system of another data set is M. africanum. Nature of the data set: microbe, parasite or virus in culture. It is filed as cell-based.
The subject of another data set is M. tuberculosis HN878. The data set can be described thus: microbe, parasite or virus in culture. In kind it is cell-based. Conditions: Mycobacterium tuberculosis.
In a further data set the test system is M. bovis BCG. The data set can be described thus: microbe, parasite or virus in culture. In kind it is cell-based.
For the next data set, the system named is A. baumannii (AB5075). Nature of the data set: MIC, broth microdilution, A. baumannii. The settings on record: Acinetobacter baumannii.
In another data set the test system is M. tuberculosis (6) MDR+. The data set can be described thus: microbe, parasite or virus in culture. In kind it is cell-based. Conditions: Mycobacterium tuberculosis.
The next data set concerns M. smegmatis mc^2155. The data set can be described thus: MIC90 against M. smegmatis. The settings on record: ≥90% growth inhibition. It is filed as cell-based.
A further data set relates to Vero. The settings on record: African green monkey, 72 h.
For a further data set, the system named is S. aureus (USA300). Nature of the data set: MIC, broth microdilution, S. aureus. Conditions: Staphylococcus aureus.
A further data set concerns E. coli ATCC 25922. Nature of the data set: MIC, broth microdilution, E. coli. The settings on record: Escherichia coli, ATCC25922.
A further data set relates to M. avium complex (3). Nature of the data set: MIC against M. avium complex. It is filed as cell-based. Conditions: Mycobacterium avium.
The subject of data set [12] is M. tuberculosis strain carrying two copies of the bioB gene. The data set can be described thus: MIC against BioB merodiploid strain. In kind it is cell-based.

Converted amounts (≈) assume the structure as drawn. “And” between values parts separate entries of the source, which are not always exact repeats. Identical values can stand only once. “Also recorded” adds a separate entry of the source. Like-named read-outs stand apart in the source and are kept apart here. Marks after values point to notes of the source that are not given here.

Chain of E. coli biotin synthase (EcBioB) (P12996 whole entry): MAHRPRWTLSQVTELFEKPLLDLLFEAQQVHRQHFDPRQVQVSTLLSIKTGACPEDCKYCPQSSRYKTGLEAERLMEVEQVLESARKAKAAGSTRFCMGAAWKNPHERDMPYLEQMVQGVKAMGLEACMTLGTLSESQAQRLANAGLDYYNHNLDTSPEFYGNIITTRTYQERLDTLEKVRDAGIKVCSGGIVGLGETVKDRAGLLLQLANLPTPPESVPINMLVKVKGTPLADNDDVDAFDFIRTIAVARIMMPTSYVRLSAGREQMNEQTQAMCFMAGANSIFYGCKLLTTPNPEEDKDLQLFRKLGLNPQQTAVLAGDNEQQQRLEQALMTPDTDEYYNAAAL

Broadly, the Ki is the equilibrium dissociation constant of an inhibitor or competing ligand from its target. Low readings indicate tighter binding, high ones weaker binding. One may read the solubility as the concentration that dissolves in the medium under given conditions. For `O=C(O)CCCCCC1NC(=O)CS1` (stereo not shown) [acidomycin], in the data set with mycobacteria, the “increase in inhibitory concentrations after growth in the presence of acidomycin” value is on record as “two-fold”. Moreover, the “concentrations required to inhibit the growth of mycobacteria in vitro” value with mycobacteria (converted value) was 1.2 to 46.0 µM. Also, in data set [1], the Ki is around 1000 nM, the “production of 5′-deoxyadenosine by BioB” value is recorded as “significantly enhanced” and the time-dependent inhibition entry is recorded as “did not exhibit time-dependent inhibition”. Further, the “susceptibility of NTM strains” value in [2] is “intrinsically resistant”. Moreover, in data set [2] (read-out: MICs), the MIC is above 1000 µM. Further, the “concentration without growth inhibition” value in data set [3] was above 1 mg/mL. The “concentration without growth inhibition” value in data set [3] (converted value) was above 4.6 mM. Moreover, the “increase of accumulation of biotin pathway intermediates (vitamers)” value in data set [4] is given as “two- to seventy-fold”. For the same compound, in [5], the “binding to MtBPL” value is reported as “does not bind to MtBPL”. In addition, the “activity against an M. tuberculosis infection in vivo” value in [6] was “inactive”. Also, the “difference in whole cell activity, E. coli versus M. tuberculosis” value with M. tuberculosis H37Rv [7] was above 100 fold. This compound also showed a solubility in the data set “physchem” below 4000 µM.

In the case of `CN(C)[C@@H]1C(O)=C(C(N)=O)C(=O)[C@@]2(O)C(O)=C3C(=O)c4c(O)cccc4[C@@](C)(O)[C@H]3C[C@@H]12` [Tetracycline, reference compound], in the data set on E. coli K-12, the “Accumulation, +biotin” value is 1600 ± 100 nmol/10^12 CFUs and the “Accumulation, −biotin” value turned out to be 3100 ± 120 nmol/10^12 CFUs. In addition, in the data set on M. tuberculosis H37Ra, the “Accumulation, +biotin” value is listed as 2220 ± 50 nmol/10^12 CFUs and the “Accumulation, −biotin” value is on record as 2200 ± 200 nmol/10^12 CFUs.

Turning to `Nc1ncnc2c1ncn2[C@@H]1O[C@H](CNS(=O)(=O)NC(=O)CCCC[C@@H]2SC[C@@H]3NC(=O)N[C@@H]32)[C@@H](O)[C@H]1O` [Bio-AMS, 5ʹ-[N-(D-biotinoyl)sulfamoyl]amino-5ʹ-deoxyadenosine], in data set [8], the “impact on global protein biotinylation” value is recorded as “noticeable decrease in protein band intensity”.

By IC50 is commonly meant the point on the concentration scale where inhibition reaches its midpoint. Higher therefore signals lower potency. For the compound `O=C(O)CCCCC[C@@H]1NC(=O)CS1` [(R)-(+)-acidomycin], the IC50 in data set [1] was above 100000 nM. Further, the “inhibition of EcBioB” value in data set [1] (at 100 μM) was “less than 30%”. For the same compound, in data set [9], the “t1/2 (i.v.)” value was 19.2 ± 2.4 min, the “F (oral bioavailability)” value was 16 ± 7%, the “AUC0–∞ (i.v.)” value amounted to 2055 ± 564 ng·h/mL and the “CL (i.v.)” value was found to be 40.55 ± 8.03 mL/min/kg. Besides, in data set [9], the “Vd (i.v.)” value came to 1.12 ± 0.37 L/kg and the “AUC0–∞ (p.o.)” value amounted to 1591 ± 718 ng·h/mL. In the data set with M. tuberculosis H37Rv [7], the MIC amounted to 7.7 µM (≈ 1.67 µg/mL) and the “fold difference in MIC relative to (S)-(−)-acidomycin” value was “thirteen-fold less active”.

As to `CO[C@H]1/C=C/O[C@@]2(C)Oc3c(C)c(O)c4c(O)c(c(/C=N/N5CCN(C)CC5)c(O)c4c3C2=O)NC(=O)/C(C)=C\C=C\[C@H](C)[C@H](O)[C@@H](C)[C@@H](O)[C@@H](C)[C@H](OC(C)=O)[C@@H]1C` [Rifampicin, reference compound], the “IC/EC Ratio” value in the data set on E. coli K-12 turned out to be 2.1.

For `O=C(O)CCCCC[C@H]1NC(=O)CS1` [(S)-(−)-acidomycin], half-maximal inhibition in [1] (IC50) was put at 13300 ± 1800 nM. Besides, in data set [9], the “t1/2 (i.v.)” value is on record as 14.4 ± 0.1 min, the “F (oral bioavailability)” value amounted to 8 ± 1%, the “AUC0–∞ (i.v.)” value turned out to be 2116 ± 115 ng·h/mL and the “CL (i.v.)” value was 39.38 ± 2.1 mL/min/kg. Also, in data set [9], the “Vd (i.v.)” value is listed as 0.82 ± 0.05 L/kg and the “AUC0–∞ (p.o.)” value stood at 890 ± 106 ng·h/mL.

With `CSc1ccc2c(c1)N(CCC1CCCCN1C)c1ccccc1S2` (stereo not shown) [Thioridazine], in the data set with M. tuberculosis H37Ra, the “Accumulation, +biotin” value is reported as 5.2 ± 0.4 nmol/10^12 CFUs; the “Accumulation, −biotin” value came to 18 ± 1 nmol/10^12 CFUs; the “IC/EC Ratio” value is 0.7 and 0.72 ± 0.04; the “Intracellular Concentration, −biotin” value is 36 ± 2 µM.

Usually MIC90 stands for an inhibitory concentration at the 90% level, which refers to growth in some studies and to a panel of isolates in others. Turning to `O=C(O)CCCCCC1NC(=O)CS1` (racemic) [(±)-acidomycin, 6-(4-Oxothiazolidin-2-yl)hexanoic acid], the “EC (greater than 50% inhibition of cell viability)” value with HepG2 and in the data set on Vero was >1000^e μM in each case. For the same compound, the MIC90 is above 1000 µM with P. aeruginosa (PA14); above 1000 µM with E. faecalis (V583); above 1000 µM in the data set on A. baumannii (AB5075); 10^d μM in the data set with M. smegmatis mc^2155; above 1000 µM with S. aureus (USA300); above 1000 µM against E. coli ATCC 25922. Further, the MIC was 1.56 µM (≈ 0.339 µg/mL) against M. tuberculosis Erdman; 0.6 to 6.2 µM (≈ 0.13 to 1.35 µg/mL) with M. tuberculosis (7) MDR; 0.096 to 1.2 µM (≈ 0.0209 to 0.261 µg/mL) in the data set on M. tuberculosis (2) XDR; above 100 µM against M. abscessus (4); 0.096 to 6.2 µM (≈ 0.0209 to 1.35 µg/mL) in data set [11]; 0.20 µM (≈ 0.0435 µg/mL) in the data set with M. africanum. Further, the MIC is 0.2 µM (≈ 0.0435 µg/mL) against M. africanum (Mycobacterium tuberculosis); 0.6 µM (≈ 0.13 µg/mL) against M. tuberculosis HN878; 1.30 µM (≈ 0.282 µg/mL) against M. bovis BCG; 1.3 µM (≈ 0.282 µg/mL) in the data set on M. bovis BCG (Mycobacterium tuberculosis variant bovis BCG, BCG); 0.2 to 4.8 µM (≈ 0.0435 to 1.04 µg/mL) with M. tuberculosis (6) MDR+; 1.56 µM (≈ 0.339 µg/mL) in the data set on M. tuberculosis H37Rv [7]. Further, the MIC is 1.6 µM (≈ 0.348 µg/mL) against M. tuberculosis H37Rv [7] (Mycobacterium tuberculosis, H37RV) and above 100 µM in the data set on M. avium complex (3). Moreover, the “effect of KAPA supplementation on growth inhibition” value in the data set with M. tuberculosis H37Rv [10] is on record as “no effect”. Also, the “effect of biotin supplementation on growth inhibition” value with M. tuberculosis H37Rv [10] is recorded as “completely rescued”. The “shift of MIC by DTB supplementation” value in the data set with M. tuberculosis H37Rv [10] was “approximately two-fold”. This compound also registered a Ki in data set [1] of 2000 ± 1300 nM. For the same compound, the modality of inhibition result in data set [1] was “competitive inhibitor; also recorded: competitive inhibition”. Also, the “IC/EC Ratio” value with E. coli K-12 is 1.6 and 1.6 ± 0.4. Moreover, the “Intracellular Concentration, −biotin” value came to 80 µM in the data set with E. coli K-12; 80 ± 20 µM with E. coli K-12 (E. coli, cell volume 1.0 μm^3); 2600 ± 800 µM with M. tuberculosis H37Ra. For the same compound, the “Accumulation, −biotin” value in the data set on E. coli K-12 (E. coli, 50 μM extracellular) was found to be 80 ± 20 nmol/10^12 CFUs; in the data set with M. tuberculosis H37Ra, 1300 ± 400 nmol/10^12 CFUs. Moreover, the “Accumulation, +biotin” value in the data set with E. coli K-12 (E. coli, 50 μM extracellular, 1 μM biotin) amounted to 61 ± 2 nmol/10^12 CFUs; in the data set with M. tuberculosis H37Ra, 1150 ± 40 nmol/10^12 CFUs. In addition, the “activity toward representative gram-negative and gram-positive pathogens” value in [2] was “inactive”. In addition, in the data set on M. tuberculosis H37Rv [7], the “effect on M. tuberculosis viability” value is “bacteriostatic”. The “fold difference in MIC relative to (S)-(−)-acidomycin” value in the data set with M. tuberculosis H37Rv [7] is recorded as “about 2.5 fold”. Moreover, the “fold higher accumulation in M. tuberculosis than in E. coli” value in the data set with M. tuberculosis H37Ra is given as “approximately 30 fold”. Besides, the “impact of exogenous biotin on cellular accumulation in M. tuberculosis” value in the data set on M. tuberculosis H37Ra is “little impact”. In data set [12], the “change of MIC in BioB merodiploid versus H37Rv” value was “increase in the MIC”.
